Test results published in patent publication US9497973B2, “Elasmobranch-repelling compounds, methods of use and devices” (priority 2005, dated 2016).
Where a name gives a salt, the structure may show the parent alone.

Legend:
[1] = test system: young Lemon Sharks (Negaprion brevirostris); conditions: in vivo; cited from earlier work
[2] = test system: at least four species of sharks; conditions: cited from earlier work
[3] = room temperature, heat; cited from earlier work
[4] = test system: several species of sharks; conditions: shark pens at Bimini, Bahamas; cited from earlier work
[5] = test system: tiger sharks and other fish; conditions: in vivo; cited from earlier work
sharks [6] = conditions: in vivo
sharks [7] = conditions: cited from earlier work
[8] = test system: blue sharks and great white sharks; conditions: squirted into the mouth; cited from earlier work

CCCCCCCCCCCCOS(=O)(=O)[O-].[Li+] [LLS]
repelling captive Lemon Sharks, compared with pardaxin [1]: even more effective than pardaxin

pardaxin
effectiveness relative to the fresh secretion ([2]; freeze-dried form): 30% | time for which sharks were repelled ([2]; laboratory and open sea, at least four species): ≥ 10 h | storage stability [3]: not stable for room temperature storage, and was heat-sensitive

copper acetate
repelling or inhibiting feeding activities [4]: fails to repel or inhibit the feeding activities | efficacy against tiger sharks and other fish [5]: inefficacy | effectiveness as a shark repellent (sharks [6]): ineffective

CCCCCCCCCCCCOS(=O)(=O)[O-].[Na+] [SLS]
repelling captive Lemon Sharks, compared with pardaxin [1]: even more effective than pardaxin | effectiveness in surrounding-cloud-mode dispersions (sharks [7]; in vivo): not effective | repellency against blue sharks and great white sharks [8]: effective repellent

CCCCCCCCCCCCOS(=O)(=O)O [dodecyl sulfate]
meeting the Navy's potency requirement for a nondirectional surrounding-cloud type repellent (sharks [7]; requirement 100 parts per billion (0.1 ppm or 100 micrograms/Liter)): did not meet
